This data set in a line: Rabbit pyrogen test. The following applies: ng CRX-601/kg animal body weight. As for the experimental part: The test was performed at Pacific Biolabs (Hercules, Calif.) as per their SOP 16E-02, which follows procedures outlined in USP<151>.

For `CCCCCCCCCCC[C@H](CC(=O)N[C@H]1[C@H](OC[C@H](NC(=O)C[C@@H](CCCCCCCCCCC)OCCCCCCCCCC)C(=O)O)O[C@H](CO)[C@@H](OP(=O)(O)O)[C@@H]1OC(=O)C[C@@H](CCCCCCCCCCC)OCCCCCCCCCC)OCCCCCCCCCC` [CRX-601], the max non-pyrogenic dose was found to be 2.5 ng/kg.

For the origin of these results see patent US20170072033A1, “LIPOSOMAL COMPOSITIONS FOR MUCOSAL DELIVERY” (GlaxoSmithKline Biologicals, SA, priority 2014, published 2017).
